{"source": "patent US12350288B2", "about": "“Inducing caspase activity” (Dow Global Technologies LLC, priority 2019, dated 2025)", "system": "HT-29 cells (human colon; colorectal adenocarcinoma)", "protocol": "HT-29 (ATCC® HTB-38™) cells (which contained approximately 1×10^6 cells per mL) were initiated and seeded into a T-25 flask containing McCoy's 5A and fetal bovine serum (10% (v/v)). […] The cells were grown in a humidified incubator (SANYO INCT-16-CMT; MCO-19AIC (UV)) maintained at 37° C. and 5% CO2. Then, the cells were rinsed with 1× Dulbecco's Phosphate-Buffered Saline and sub-cultured in T-75 flasks 1 to 3 times per week using 1× Trypsin-EDTA, applied for ≤5 minutes; enzymatic action of the trypsin-EDTA was stopped by adding complete growth medium to the detached cells. Then, upon reaching 80 to 90% confluency the cells were split into the following split ratio ranges: 1:5 to 1:16. Subculture and growth expansion activities were recorded, such as passage number, % confluency, % viability (only on experimental set-up day), and cell morphology throughout all phases. The cells were maintained in log-phase growth.\nCell culture plating was performed as follows. A cell suspension from a single 80 to 90% confluent T-75 flask was harvested with trypsin-EDTA and complete growth medium. To obtain cell concentration and viability, cell counts were obtained using a COUNTESS automated cell counter (INVITROGEN C10227; CNTR-7-CMT) in which 2 chambers of each slide were provided with 10 μL each of 1:1, 0.4% trypan-blue dye (INVITROGEN T10282) and cell suspension. […]"}
{"substance": "Poly(ethylene glycol) methyl ether tosylate", "values": [{"measurement": "viability", "result": "≥ 70", "unit": "%"}]}
